According to patent US20050215551A1, “1-[2H-1-benzopyran-2-one-8-yl]- piperazine derivatives for the treatment of movement disorders” (SOLVAY PHARMACEUTICALS B.V., priority 2004, published 2005):

How the values were obtained:
[1] = target: Endothelin-ETB (Homo sapiens, UniProt P24530); test: Receptor binding Endothelin-ETB; settings: radioligand [125I]-endothelin-1, read-out: Ki(nM) Compound 1
Procedure: (§1) Receptor binding data were obtained by CEREP (128, rue Danton, 92500 Rueil-Malmaison, France) or at Solvay Pharmaceuticals B.V., using well documented standard procedures. Affinity for 5-HT1A receptors for instance, was determined by testing the ability of the compounds of the invention to displace [^3H]-2-(di-n-propylamino)-8-hydroxytetralin ([^3H]-8-OH-DPAT) from its specific binding sites in rat frontal cortex homogenates. This test is based on the method described by Gozlan et al. (Nature, 305, (1983), pages 140-142).
(§2) The binding data collected in the table below were either obtained by CEREP (128, rue Danton, 92500 Rueil-Malmaison, France) or at Solvay Pharmaceuticals B.V., using well documented standard procedures.

[2] = target: bradykinin (Homo sapiens, UniProt P30411); test: Receptor binding bradykinin; settings: radioligand [3H]-bradykinin, read-out: Ki(nM) Compound 1
Procedure: as §1, §2

[3] = target: LTB4 (Cavia porcellus, UniProt H0VYV8); test: Receptor binding LTB4; settings: radioligand [3H]-LTB4; guinea pig; read-out: Ki(nM) Compound 1
Chain of LTB4 (H0VYV8 1-348): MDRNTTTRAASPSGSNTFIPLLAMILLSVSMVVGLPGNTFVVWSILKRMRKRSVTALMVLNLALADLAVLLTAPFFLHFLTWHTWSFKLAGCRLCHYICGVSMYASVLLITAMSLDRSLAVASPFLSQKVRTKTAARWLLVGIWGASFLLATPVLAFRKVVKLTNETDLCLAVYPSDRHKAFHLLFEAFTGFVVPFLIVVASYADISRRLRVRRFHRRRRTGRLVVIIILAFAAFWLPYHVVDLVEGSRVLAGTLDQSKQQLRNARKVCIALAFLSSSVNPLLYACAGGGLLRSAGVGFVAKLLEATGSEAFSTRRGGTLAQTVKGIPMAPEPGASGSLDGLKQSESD
Procedure: as §1, §2

[4] = target: Neuropeptide Y2 (Homo sapiens, UniProt P49146); test: Receptor binding Neuropeptide Y2; settings: radioligand [125I]-PYY, read-out: Ki(nM) Compound 1
Chain of Neuropeptide Y2 (P49146 whole entry): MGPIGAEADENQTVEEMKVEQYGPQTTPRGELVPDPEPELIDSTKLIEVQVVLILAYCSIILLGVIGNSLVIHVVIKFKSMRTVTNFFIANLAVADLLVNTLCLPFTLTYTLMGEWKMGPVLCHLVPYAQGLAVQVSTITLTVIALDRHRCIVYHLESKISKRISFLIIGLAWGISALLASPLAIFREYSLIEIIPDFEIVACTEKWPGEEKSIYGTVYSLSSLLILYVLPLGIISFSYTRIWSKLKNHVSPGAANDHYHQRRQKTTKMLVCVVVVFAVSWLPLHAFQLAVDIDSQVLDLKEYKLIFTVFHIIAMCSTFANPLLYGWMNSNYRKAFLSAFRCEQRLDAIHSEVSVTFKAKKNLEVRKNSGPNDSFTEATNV
Procedure: as §1, §2

[5] = target: Neurotensin-NT1 (Homo sapiens, UniProt P30989); test: Receptor binding Neurotensin-NT1; settings: radioligand [125I]-neurotensin, read-out: Ki(nM) Compound 1
Procedure: as §1, §2

[6] = target: PACAP (Rattus norvegicus, UniProt P32215); test: Receptor binding PACAP; settings: radioligand [125I]-PACAP 1-27, read-out: Ki(nM) Compound 1
Chain of PACAP (P32215 20-523): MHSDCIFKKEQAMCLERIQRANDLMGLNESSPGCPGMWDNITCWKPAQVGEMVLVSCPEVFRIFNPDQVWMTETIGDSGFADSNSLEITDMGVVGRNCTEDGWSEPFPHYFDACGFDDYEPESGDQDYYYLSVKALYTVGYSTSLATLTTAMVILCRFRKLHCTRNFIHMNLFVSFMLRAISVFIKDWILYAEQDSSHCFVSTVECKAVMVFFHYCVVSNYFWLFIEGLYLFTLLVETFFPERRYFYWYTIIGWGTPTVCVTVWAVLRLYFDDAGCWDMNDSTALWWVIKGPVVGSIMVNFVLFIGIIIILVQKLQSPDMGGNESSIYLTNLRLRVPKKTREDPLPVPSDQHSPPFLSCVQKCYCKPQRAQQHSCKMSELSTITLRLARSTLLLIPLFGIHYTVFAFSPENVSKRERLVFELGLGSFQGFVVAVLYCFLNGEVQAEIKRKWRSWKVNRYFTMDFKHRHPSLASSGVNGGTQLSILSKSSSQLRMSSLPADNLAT
Procedure: as §1, §2

[7] = target: nociceptin (ORL1) (Homo sapiens, UniProt P41146); test: Receptor binding nociceptin (ORL1); settings: radioligand [3H]-nociceptine, read-out: Ki(nM) Compound 1
Chain of nociceptin (ORL1) (P41146 whole entry): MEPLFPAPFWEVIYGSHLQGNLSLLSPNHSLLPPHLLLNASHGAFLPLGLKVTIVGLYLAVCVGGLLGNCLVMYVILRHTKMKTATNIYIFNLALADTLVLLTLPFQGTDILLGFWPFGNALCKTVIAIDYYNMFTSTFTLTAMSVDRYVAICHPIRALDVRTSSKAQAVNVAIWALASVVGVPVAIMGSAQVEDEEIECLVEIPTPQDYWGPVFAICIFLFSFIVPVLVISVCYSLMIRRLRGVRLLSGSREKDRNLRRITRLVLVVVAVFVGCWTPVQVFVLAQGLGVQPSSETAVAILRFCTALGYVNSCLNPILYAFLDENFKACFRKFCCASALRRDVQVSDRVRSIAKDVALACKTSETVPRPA
Procedure: as §1, §2

[8] = target: T1, 5-HT1A (Rattus norvegicus, UniProt P19327); test: In vivo 5-HT1A agonism: lower lip retraction (LLR); settings: 60 minutes after oral administration
T1 construct: from tissue; host or cells: whole animal (in vivo behavioural test)
T1 sequence (P19327 whole entry): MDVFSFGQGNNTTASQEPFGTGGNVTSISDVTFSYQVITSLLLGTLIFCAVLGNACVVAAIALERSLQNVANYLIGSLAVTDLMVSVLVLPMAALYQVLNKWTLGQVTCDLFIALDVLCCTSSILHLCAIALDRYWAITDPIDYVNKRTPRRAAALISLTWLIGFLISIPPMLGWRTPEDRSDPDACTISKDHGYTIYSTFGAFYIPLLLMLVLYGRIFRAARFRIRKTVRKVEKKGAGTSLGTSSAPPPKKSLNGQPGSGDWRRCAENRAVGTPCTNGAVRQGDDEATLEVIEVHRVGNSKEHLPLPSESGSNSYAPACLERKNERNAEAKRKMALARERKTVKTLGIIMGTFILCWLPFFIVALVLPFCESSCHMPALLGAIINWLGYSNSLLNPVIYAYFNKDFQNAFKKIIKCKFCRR
Procedure: Lower lip retraction was measured according to the method described by Berendsen et al., (Pharmacol. Biochem. Behav. 33, (1989), 821-827).

[9] = target: κ-opiate (Rattus norvegicus, UniProt P34975); test: Receptor binding κ-opiate; settings: radioligand [3H]-U 69593, read-out: Ki(nM) Compound 1
Chain of κ-opiate (P34975 whole entry): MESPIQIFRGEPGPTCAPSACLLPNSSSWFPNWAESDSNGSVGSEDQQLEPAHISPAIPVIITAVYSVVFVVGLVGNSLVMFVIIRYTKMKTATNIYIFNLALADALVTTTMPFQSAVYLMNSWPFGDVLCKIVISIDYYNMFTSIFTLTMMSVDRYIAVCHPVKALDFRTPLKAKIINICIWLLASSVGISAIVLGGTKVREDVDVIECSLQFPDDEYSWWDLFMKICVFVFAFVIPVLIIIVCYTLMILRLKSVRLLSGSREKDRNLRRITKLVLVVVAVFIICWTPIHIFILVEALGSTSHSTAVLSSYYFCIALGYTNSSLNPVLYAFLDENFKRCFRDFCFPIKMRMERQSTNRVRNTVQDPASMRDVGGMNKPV
Procedure: as §1, §2

[10] = target: Histamine-H2 (Homo sapiens, UniProt P25021); test: Receptor binding Histamine-H2; settings: radioligand [125I]-APT, read-out: Ki(nM) Compound 1
Chain of Histamine-H2 (P25021 whole entry): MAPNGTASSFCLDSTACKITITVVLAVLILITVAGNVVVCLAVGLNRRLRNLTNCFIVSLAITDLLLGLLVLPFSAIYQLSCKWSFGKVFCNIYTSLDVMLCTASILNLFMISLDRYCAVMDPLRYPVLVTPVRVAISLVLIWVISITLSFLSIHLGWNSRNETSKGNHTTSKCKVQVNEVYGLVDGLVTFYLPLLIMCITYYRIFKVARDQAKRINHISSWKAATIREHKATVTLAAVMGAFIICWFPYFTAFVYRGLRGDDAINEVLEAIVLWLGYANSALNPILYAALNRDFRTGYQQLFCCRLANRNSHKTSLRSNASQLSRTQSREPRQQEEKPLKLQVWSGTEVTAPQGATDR
Procedure: as §1, §2

[11] = target: 5-HT2B (Homo sapiens, UniProt P41595); test: Receptor binding 5-HT2B; settings: radioligand [3H]-LSD, read-out: Ki(nM) Compound 1
Chain of 5-HT2B (P41595 whole entry): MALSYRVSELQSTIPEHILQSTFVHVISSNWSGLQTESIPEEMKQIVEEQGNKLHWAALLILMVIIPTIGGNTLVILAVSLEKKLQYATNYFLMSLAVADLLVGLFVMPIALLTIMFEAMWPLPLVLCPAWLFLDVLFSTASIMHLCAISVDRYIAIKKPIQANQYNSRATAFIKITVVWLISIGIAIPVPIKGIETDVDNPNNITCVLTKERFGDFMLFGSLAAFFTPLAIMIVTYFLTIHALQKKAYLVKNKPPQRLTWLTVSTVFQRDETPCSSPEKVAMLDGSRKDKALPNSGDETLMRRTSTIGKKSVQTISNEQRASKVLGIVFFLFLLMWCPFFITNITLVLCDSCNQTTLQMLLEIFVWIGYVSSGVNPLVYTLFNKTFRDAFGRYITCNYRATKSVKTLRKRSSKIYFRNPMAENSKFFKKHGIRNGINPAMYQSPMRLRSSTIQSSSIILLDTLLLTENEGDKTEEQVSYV
Procedure: as §1, §2

[12] = target: 5-HT4 (Homo sapiens, UniProt Q13639); test: Receptor binding 5-HT4; settings: radioligand [3H]-GR 113808, read-out: Ki(nM) Compound 1
Chain of 5-HT4 (Q13639 whole entry): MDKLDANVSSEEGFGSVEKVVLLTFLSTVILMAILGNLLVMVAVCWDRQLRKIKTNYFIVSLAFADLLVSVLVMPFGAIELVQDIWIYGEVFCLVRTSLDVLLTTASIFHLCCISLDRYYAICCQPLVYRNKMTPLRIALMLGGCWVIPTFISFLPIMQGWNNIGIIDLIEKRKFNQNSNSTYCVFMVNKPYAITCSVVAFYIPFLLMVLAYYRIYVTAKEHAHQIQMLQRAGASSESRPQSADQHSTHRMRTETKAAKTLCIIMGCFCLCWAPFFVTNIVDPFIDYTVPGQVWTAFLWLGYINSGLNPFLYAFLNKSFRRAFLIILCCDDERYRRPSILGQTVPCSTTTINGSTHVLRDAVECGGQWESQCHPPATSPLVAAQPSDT
Procedure: as §1, §2

[13] = target: β1-adrenergic (Homo sapiens, UniProt P08588); test: Receptor binding β1-adrenergic; settings: radioligand [3H]-CGP 12177, read-out: Ki(nM) Compound 1
Chain of β1-adrenergic (P08588 whole entry): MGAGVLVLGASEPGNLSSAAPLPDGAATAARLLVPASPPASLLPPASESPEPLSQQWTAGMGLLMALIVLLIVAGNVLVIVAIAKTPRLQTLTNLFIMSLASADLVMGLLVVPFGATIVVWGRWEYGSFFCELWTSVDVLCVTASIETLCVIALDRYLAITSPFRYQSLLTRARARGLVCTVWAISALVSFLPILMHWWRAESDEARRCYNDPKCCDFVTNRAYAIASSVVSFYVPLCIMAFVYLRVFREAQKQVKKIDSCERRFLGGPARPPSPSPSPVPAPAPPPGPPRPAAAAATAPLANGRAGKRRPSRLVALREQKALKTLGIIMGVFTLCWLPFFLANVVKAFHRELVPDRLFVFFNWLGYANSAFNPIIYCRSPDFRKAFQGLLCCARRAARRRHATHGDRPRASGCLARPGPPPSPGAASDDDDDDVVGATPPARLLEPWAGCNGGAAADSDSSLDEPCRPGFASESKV
Procedure: as §1, §2

[14] = target: Prostaglandin-I2 (Homo sapiens, UniProt P43119); test: Receptor binding Prostaglandin-I2; settings: radioligand [3H]-iloprost, read-out: Ki(nM) Compound 1
Procedure: as §1, §2

[15] = target: δ-opiate (Rattus norvegicus, UniProt P33533); test: Receptor binding δ-opiate; settings: radioligand [3H]-DPDPE, read-out: Ki(nM) Compound 1
Chain of δ-opiate (P33533 whole entry): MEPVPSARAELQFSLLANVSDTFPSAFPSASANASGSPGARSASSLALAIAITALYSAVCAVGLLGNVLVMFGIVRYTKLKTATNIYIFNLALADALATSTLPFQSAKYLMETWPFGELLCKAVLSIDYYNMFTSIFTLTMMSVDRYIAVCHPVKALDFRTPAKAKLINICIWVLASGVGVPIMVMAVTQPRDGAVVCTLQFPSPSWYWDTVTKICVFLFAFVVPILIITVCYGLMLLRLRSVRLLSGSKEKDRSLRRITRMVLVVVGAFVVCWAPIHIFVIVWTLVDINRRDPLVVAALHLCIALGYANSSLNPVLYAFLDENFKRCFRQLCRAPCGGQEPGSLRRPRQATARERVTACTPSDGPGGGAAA
Procedure: as §1, §2

[16] = target: NAreuptake (Homo sapiens, UniProt P23975); test: Binding NA reuptake; settings: radioligand [3H]-nisoxetin, read-out: Ki(nM) Compound 1
Procedure: as §1, §2

[17] = target: Dopamine-D1 (Homo sapiens, UniProt P21728); test: Receptor binding Dopamine-D1; settings: radioligand [3H]-SCH 23390, read-out: Ki(nM) Compound 1
Chain of Dopamine-D1 (P21728 whole entry): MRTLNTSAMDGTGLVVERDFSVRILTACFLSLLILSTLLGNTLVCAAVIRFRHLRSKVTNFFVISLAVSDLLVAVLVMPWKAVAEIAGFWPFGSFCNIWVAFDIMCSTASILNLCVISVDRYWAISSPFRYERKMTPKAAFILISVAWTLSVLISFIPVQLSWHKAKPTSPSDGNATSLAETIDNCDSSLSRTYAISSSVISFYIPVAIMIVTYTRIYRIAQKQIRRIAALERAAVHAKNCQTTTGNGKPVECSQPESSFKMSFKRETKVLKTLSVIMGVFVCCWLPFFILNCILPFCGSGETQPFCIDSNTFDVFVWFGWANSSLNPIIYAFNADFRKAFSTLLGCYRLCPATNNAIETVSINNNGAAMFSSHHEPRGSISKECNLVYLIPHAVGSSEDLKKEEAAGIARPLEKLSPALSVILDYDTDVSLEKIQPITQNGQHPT
Procedure: as §1, §2

[18] = target: CCKA (Homo sapiens, UniProt P32238); test: Receptor binding CCKA; settings: radioligand [3H]-devazepide, read-out: Ki(nM) Compound 1
Procedure: as §1, §2

[19] = target: Glycine strychn. insens. (Rattus norvegicus, UniProt P35439); test: Receptor binding Glycine strychn. insens.; settings: radioligand [3H]-MDL105519, read-out: Ki(nM) Compound 1
Procedure: as §1, §2

Nc1cc2cccc(N3CCNCC3)c2oc1=O [Compound 1, 3-amino-8-(1-piperazinyl)-2H-1-benzopyran-2-one]
0.12 mg/kg: ED50 [8]
> 1000 nM: Ki [1] | Ki [2] | Ki [4] | Ki [5] | Ki [6] | Ki [7] | Ki [9] | Ki [10] | Ki [12] | Ki [14] | Ki [15] | Ki [16] | Ki [17] | Ki [18]
320 nM: Ki [11]
> 10000 nM: Ki [3] | Ki [19]
50 nM: Ki [13]
